We go through 72 molecules from ChEMBL document CHEMBL3244164, “Synthesis and analgesic activity of 1,3-dihydro-3-(substituted phenyl)imidazo[4,5-b]pyridin-2-ones and 3-(substituted phenyl)-1,2,3-triazolo[4,5-b]pyridines” (J Med Chem, 1978).

Experiment [1] relates to Rattus norvegicus. Description: Analgesic activity in Sprague-Dawley rat brewer's yeast treated foot assessed as response threshold at 32 mg/kg, po. It counts as functional.
Experiment [2] concerns Rattus norvegicus. Description: Analgesic activity in Sprague-Dawley rat normal foot assessed as response threshold at 32 mg/kg, po. It counts as functional.

On to `CCOCn1c(=O)n(-c2ccc3c(c2)OCO3)c2ncccc21`, for which the values for the Activity in the experiment on Rattus norvegicus [1] and with Rattus norvegicus [2] were less than 25 mm and less than 40 mm, respectively.

As to `Clc1ccc2nnn(-c3ccccc3)c2n1`, the Activity was less than 25 mm in the experiment on Rattus norvegicus [1] and less than 40 mm with Rattus norvegicus [2].

Consider `c1cnc2c(c1)nnn2-c1ccc2c(c1)CCC2`, for which the Activity in the experiment with Rattus norvegicus [1] is listed as less than 25 mm; in the experiment on Rattus norvegicus [2] it was less than 40 mm.

For `O=c1n(CC2CO2)c2cccnc2n1-c1ccc2c(c1)OCO2` (centres undefined), the Activity in the experiment on Rattus norvegicus [1] is given as less than 25 mm; in the experiment with Rattus norvegicus [2], less than 40 mm.

Consider `CC(C)Cc1ccc(-n2c(=O)[nH]c3cccnc32)cc1`, for which the Activity in the experiment with Rattus norvegicus [1] is reported as less than 25 mm; in the experiment with Rattus norvegicus [2], less than 40 mm.

As to `O=c1[nH]c2cccnc2n1-c1ccc2c(c1)COC2`, the Activity with Rattus norvegicus [1] is less than 25 mm; with Rattus norvegicus [2], less than 40 mm.

For `C=CCn1c(=O)n(-c2ccc3c(c2)CCC3)c2ncccc21`, the figures for the Activity in the experiment on Rattus norvegicus [1] and with Rattus norvegicus [2] were less than 25 mm and less than 40 mm, respectively.

Turning to `O=c1[nH]c2cccnc2n1Cc1ccc(F)cc1`, the Activity with Rattus norvegicus [1] is less than 25 mm; in the experiment with Rattus norvegicus [2], less than 40 mm.

On to `NC(=O)c1ccccc1-n1nnc2cccnc21`, for which the Activity is 25 mm in the experiment with Rattus norvegicus [1] and less than 40 mm with Rattus norvegicus [2].

As for `S=c1[nH]c2cccnc2n1-c1ccc2c(c1)OCO2`, the figures for the Activity with Rattus norvegicus [1] and with Rattus norvegicus [2] were less than 25 mm and less than 40 mm, respectively.

Regarding `CCC1(CC)Oc2ccc(-n3c(=O)[nH]c4cccnc43)cc2O1`, the Activity in the experiment with Rattus norvegicus [1] was less than 25 mm; in the experiment on Rattus norvegicus [2], less than 40 mm.

In the case of `O=c1[nH]c2cccnc2n1-c1ccc2c(c1)CCC2`, the figures for the Activity with Rattus norvegicus [1] and in the experiment on Rattus norvegicus [2] were less than 25 mm and less than 40 mm, respectively.

As to `C=CCn1c(=O)n(-c2ccc(C)c(OC)c2)c2ncccc21`, the Activity is less than 25 mm in the experiment on Rattus norvegicus [1] and less than 40 mm with Rattus norvegicus [2].

As to `O=c1[nH]c2cccnc2n1-c1ccc2c(c1)OC1(CCCCC1)O2`, the Activity in the experiment with Rattus norvegicus [1] is less than 25 mm; in the experiment on Rattus norvegicus [2], less than 40 mm.

For `CCOC(=O)Cn1c(=O)n(-c2ccc3c(c2)OCO3)c2ncccc21`, the Activity in the experiment with Rattus norvegicus [1] was less than 25 mm; in the experiment with Rattus norvegicus [2] it was less than 40 mm.

With `COc1ccc(-n2c(=O)[nH]c3cccnc32)cc1OC`, the Activity in the experiment with Rattus norvegicus [1] is reported as less than 25 mm; with Rattus norvegicus [2], less than 40 mm.

As for `C#CCn1c(=O)n(-c2ccc3c(c2)OCO3)c2ncccc21`, the Activity was less than 25 mm in the experiment with Rattus norvegicus [1] and less than 40 mm with Rattus norvegicus [2].

`CC(C)Cc1ccc(-n2nnc3cccnc32)cc1`: the Activity in the experiment on Rattus norvegicus [1] is on record as less than 25 mm; in the experiment on Rattus norvegicus [2], less than 40 mm.

For `CC(C)c1ccccc1-n1nnc2cccnc21`, the Activity is 25 mm in the experiment on Rattus norvegicus [1] and less than 40 mm in the experiment with Rattus norvegicus [2].

For `c1cnc2c(c1)nnn2-c1ccc2c(c1)OCO2`, the Activity amounted to 25 mm in the experiment with Rattus norvegicus [1] and 40 mm with Rattus norvegicus [2].

Take `COc1ccc(-n2c(=O)[nH]c3cccnc32)c(OC)c1`: the Activity with Rattus norvegicus [1] was less than 25 mm; in the experiment on Rattus norvegicus [2] it was less than 40 mm.

For the molecule `O=C(O)c1ccc(-n2c(=O)[nH]c3cccnc32)cc1`, the results for the Activity in the experiment on Rattus norvegicus [1] and with Rattus norvegicus [2] were less than 25 mm and less than 40 mm, respectively.

In the case of `C=CCn1c(=O)n(-c2ccc3c(c2)OC2(CCCCC2)O3)c2ncccc21`, the Activity in the experiment on Rattus norvegicus [1] is recorded as less than 25 mm; in the experiment with Rattus norvegicus [2] it was 40 mm.

For `COc1ccc(-n2nnc3cccnc32)cc1OC`, the Activity in the experiment on Rattus norvegicus [1] is given as less than 25 mm; in the experiment with Rattus norvegicus [2], less than 40 mm.

With `c1cnc2c(c1)nnn2-c1ccncc1`, the Activity with Rattus norvegicus [1] is reported as less than 25 mm; with Rattus norvegicus [2], less than 40 mm.

Regarding `Cc1cccc(-n2nnc3cccnc32)n1`, the Activity was less than 25 mm with Rattus norvegicus [1] and less than 40 mm with Rattus norvegicus [2].

For `O=c1[nH]c2cccnc2n1-c1cc(F)ccc1F`, the Activity in the experiment with Rattus norvegicus [1] was less than 25 mm; in the experiment on Rattus norvegicus [2] it was less than 40 mm.

On to `COC(=O)c1cnc2c(c1)nnn2-c1ccc2c(c1)OCO2`, for which the Activity is less than 25 mm in the experiment with Rattus norvegicus [1] and less than 40 mm in the experiment on Rattus norvegicus [2].

As for `CC(=O)OCCn1c(=O)n(-c2ccc3c(c2)OCO3)c2ncccc21`, the Activity is listed as 25 mm with Rattus norvegicus [1] and less than 40 mm in the experiment on Rattus norvegicus [2].

`O=c1[nH]c2cccnc2n1-c1cccc(C(F)(F)F)c1`: the values for the Activity in the experiment on Rattus norvegicus [1] and with Rattus norvegicus [2] were less than 25 mm and less than 40 mm, respectively.

Turning to `Cc1ccc(-n2c(=O)[nH]c3cccnc32)cc1C`, the figures for the Activity in the experiment on Rattus norvegicus [1] and in the experiment with Rattus norvegicus [2] were less than 25 mm and less than 40 mm, respectively.

For the molecule `C=CCn1c(=O)n(-c2ccc(OC)c(OC)c2)c2ncccc21`, the Activity with Rattus norvegicus [1] is reported as less than 25 mm; in the experiment with Rattus norvegicus [2], less than 40 mm.

Turning to `Fc1ccccc1-n1nnc2cc(Cl)cnc21`, the Activity in the experiment on Rattus norvegicus [1] is on record as 25 mm; with Rattus norvegicus [2], less than 40 mm.

Consider `O=c1[nH]c2cccnc2n1Cc1ccc2c(c1)OCO2`, for which the figures for the Activity in the experiment on Rattus norvegicus [1] and in the experiment on Rattus norvegicus [2] were less than 25 mm and less than 40 mm, respectively.

`C=CCn1c(=O)n(-c2ccc3c(c2)OCO3)c2ccccc21`: the values for the Activity in the experiment with Rattus norvegicus [1] and in the experiment on Rattus norvegicus [2] were less than 25 mm and less than 40 mm, respectively.

For `O=c1[nH]c2cccnc2n1-c1ccccc1Br`, the Activity with Rattus norvegicus [1] is reported as 25 mm; with Rattus norvegicus [2], less than 40 mm.

Regarding `O=c1n(CCc2ccccc2)c2cccnc2n1-c1ccc2c(c1)OCO2`, the results for the Activity in the experiment on Rattus norvegicus [1] and in the experiment with Rattus norvegicus [2] were less than 25 mm and less than 40 mm, respectively.

On to `CC1(C)Oc2ccc(-n3nnc4cccnc43)cc2O1`, for which the Activity was less than 25 mm with Rattus norvegicus [1] and less than 40 mm with Rattus norvegicus [2].

As to `O=C(O)c1ccc(-n2nnc3cccnc32)cc1`, the Activity with Rattus norvegicus [1] was less than 25 mm; in the experiment with Rattus norvegicus [2], less than 40 mm.

With `CCCCNC(=O)n1c(=O)n(-c2ccc3c(c2)OCO3)c2ncccc21`, the results for the Activity in the experiment with Rattus norvegicus [1] and in the experiment on Rattus norvegicus [2] were less than 25 mm and less than 40 mm, respectively.

Take `COc1ccc(-n2nnc3cccnc32)cc1`: the Activity is less than 25 mm in the experiment on Rattus norvegicus [1] and less than 40 mm in the experiment with Rattus norvegicus [2].

With `Cc1c(Cl)cccc1-n1c(=O)[nH]c2cccnc21`, the Activity in the experiment with Rattus norvegicus [1] was less than 25 mm; in the experiment with Rattus norvegicus [2], less than 40 mm.

Consider `C=CCn1c(=O)n(-c2cccc(C)n2)c2ncccc21`, for which the Activity is listed as less than 25 mm with Rattus norvegicus [1] and less than 40 mm in the experiment on Rattus norvegicus [2].

Consider `Cc1ccc(F)c(-n2c(=O)[nH]c3cccnc32)c1`, for which the Activity is given as less than 25 mm in the experiment with Rattus norvegicus [1] and 40 mm in the experiment on Rattus norvegicus [2].

As for `O=c1[nH]c2cccnc2n1-c1ccc(Cl)cc1`, the Activity is listed as less than 25 mm in the experiment on Rattus norvegicus [1] and less than 40 mm in the experiment with Rattus norvegicus [2].

As to `CCc1ccc(-n2nnc3cccnc32)cc1`, the figures for the Activity in the experiment with Rattus norvegicus [1] and in the experiment on Rattus norvegicus [2] were less than 25 mm and less than 40 mm, respectively.

For the molecule `O=c1n(C/C=C/c2ccccc2)c2cccnc2n1-c1ccc2c(c1)OCO2`, the Activity in the experiment on Rattus norvegicus [1] is on record as less than 25 mm; in the experiment on Rattus norvegicus [2], less than 40 mm.

`CCOC(=O)c1cccc(-n2c(=O)[nH]c3cccnc32)c1`: the Activity in the experiment on Rattus norvegicus [1] was less than 25 mm; in the experiment on Rattus norvegicus [2], less than 40 mm.

With `Clc1ccccc1-n1nnc2cccnc21`, the Activity in the experiment on Rattus norvegicus [1] was 25 mm; in the experiment with Rattus norvegicus [2], less than 40 mm.

In the case of `Clc1ccc(-n2nnc3cccnc32)cc1`, the Activity with Rattus norvegicus [1] is less than 25 mm; in the experiment on Rattus norvegicus [2], less than 40 mm.

In the case of `CCCCCCn1c(=O)n(-c2ccc3c(c2)OCO3)c2ncccc21`, the Activity in the experiment on Rattus norvegicus [1] was 25 mm; in the experiment on Rattus norvegicus [2] it was less than 40 mm.

For the molecule `O=C(C1CC1)n1c(=O)n(-c2ccc3c(c2)OCO3)c2ncccc21`, the Activity with Rattus norvegicus [1] was less than 25 mm; with Rattus norvegicus [2] it was less than 40 mm.

Regarding `c1cnc2c(c1)nnn2-c1ccc2c(c1)COC2`, the Activity in the experiment on Rattus norvegicus [1] is recorded as less than 25 mm; with Rattus norvegicus [2] it was less than 40 mm.

`C=CCn1c(=O)n(-c2ccccc2F)c2ncccc21`: the Activity in the experiment on Rattus norvegicus [1] is given as 25 mm; in the experiment with Rattus norvegicus [2], less than 40 mm.

As for `C=CCn1c(=O)n(-c2ccc3c(c2)OCO3)c2ncccc21.CI`, the results for the Activity with Rattus norvegicus [1] and in the experiment on Rattus norvegicus [2] were less than 25 mm and less than 40 mm, respectively.

As to `CC(C)=CCn1c(=O)n(-c2ccc3c(c2)OCO3)c2ncccc21`, the results for the Activity in the experiment on Rattus norvegicus [1] and in the experiment with Rattus norvegicus [2] were less than 25 mm and less than 40 mm, respectively.

On to `Cc1cc2c(cc1-n1c(=O)[nH]c3cccnc31)OCO2`, for which the Activity with Rattus norvegicus [1] is listed as less than 25 mm; in the experiment on Rattus norvegicus [2] it was less than 40 mm.

As to `COc1ccc(OC)c(-n2nnc3cccnc32)c1`, the Activity is given as less than 25 mm with Rattus norvegicus [1] and less than 40 mm in the experiment with Rattus norvegicus [2].

For `O=c1n(-c2ccc3c(c2)OCO3)c2ncccc2n1C(F)(F)C(F)Cl` (centres undefined), the Activity is given as less than 25 mm with Rattus norvegicus [1] and less than 40 mm in the experiment on Rattus norvegicus [2].

On to `O=c1[nH]c2cccnc2n1-c1ccccc1F`, for which the Activity is 25 mm in the experiment on Rattus norvegicus [1] and less than 40 mm in the experiment on Rattus norvegicus [2].

For `O=c1[nH]c2cccnc2n1-c1ccc2c(c1)COCO2`, the Activity in the experiment on Rattus norvegicus [1] is on record as less than 25 mm; in the experiment with Rattus norvegicus [2], less than 40 mm.

As to `CC(=O)Oc1ccccc1C(=O)O` [ASPIRIN], the Activity in the experiment on Rattus norvegicus [1] is 25 mm; in the experiment with Rattus norvegicus [2], less than 40 mm.

`C=CCSc1nc2cccnc2n1-c1ccc2c(c1)OCO2`: the values for the Activity in the experiment with Rattus norvegicus [1] and in the experiment on Rattus norvegicus [2] were less than 25 mm and less than 40 mm, respectively.

For `O=c1[nH]c2cccnc2n1-c1ccc(Cl)cc1Cl`, the Activity in the experiment on Rattus norvegicus [1] was 25 mm; in the experiment with Rattus norvegicus [2], less than 40 mm.

Take `O=c1[nH]c2cc([N+](=O)[O-])cnc2n1-c1ccccc1F`: the Activity with Rattus norvegicus [1] is less than 25 mm; in the experiment on Rattus norvegicus [2], less than 40 mm.

For the molecule `Clc1ccc(-n2nnc3cccnc32)c(Cl)c1`, the figures for the Activity with Rattus norvegicus [1] and with Rattus norvegicus [2] were less than 25 mm and 40 mm, respectively.

In the case of `CC(C)=O.O=C(Cn1c(=O)n(-c2ccc3c(c2)OCO3)c2ncccc21)c1ccccc1`, the Activity in the experiment on Rattus norvegicus [1] is listed as less than 25 mm; in the experiment with Rattus norvegicus [2], 40 mm.

As to `Oc1ccccc1-n1nnc2cccnc21`, the results for the Activity with Rattus norvegicus [1] and in the experiment on Rattus norvegicus [2] were less than 25 mm and less than 40 mm, respectively.

Turning to `COc1cccc(-n2c(=O)[nH]c3cccnc32)c1`, the values for the Activity in the experiment with Rattus norvegicus [1] and with Rattus norvegicus [2] were less than 25 mm and less than 40 mm, respectively.

Take `Cc1c(Cl)cccc1-n1nnc2cccnc21`: the Activity in the experiment on Rattus norvegicus [1] was less than 25 mm; in the experiment on Rattus norvegicus [2], less than 40 mm.

Turning to `Cc1cccc(C)c1-n1c(=O)[nH]c2cccnc21`, the Activity in the experiment on Rattus norvegicus [1] is 25 mm; in the experiment on Rattus norvegicus [2] it was less than 40 mm.

For `Cc1cccc(-n2c(=O)[nH]c3cccnc32)n1`, the Activity in the experiment on Rattus norvegicus [1] is less than 25 mm; in the experiment with Rattus norvegicus [2], less than 40 mm.
